According to patent US8883750B2, “Method of treating diabetes” (Gilead Sciences, Inc., priority 2002, dated 2014):

Assays:
[1] = Solubility of ranolazine in aqueous solutions as a function of pH; format: physicochemical
[2] = tested on: symptomatic chronic angina patients; test: CARISA study: modified Bruce treadmill exercise tests and angina, ranolazine added to background anti-anginal therapy; format: in vivo, human; conditions: for Prolongation of exercise duration at trough drug concentrations: Example 10 formulation
Method: (§1) The CARISA (Combination Assessment of Ranolazine in Stable Angina) study randomized 823 symptomatic chronic angina patients on diltiazem, atenolol or amlodipine to ranolazine 750 mg bid, 1000 mg bid or placebo in a parallel, double-blind, 12 week study. Modified Bruce treadmill tests were performed at baseline, and after 2, 6, and 12 weeks of treatment at trough and peak plasma levels. The ranolazine formulation used in this study was that shown in Example 10.
(§2) Angina frequency and nitroglycerin consumption were reduced by ranolazine. The ranolazine formulation used in the CARISA and MARISA studies was that shown in Example 10. The most frequently reported adverse events (dizziness constipation and nausea) were generally mild and occurred in fewer than 10% of patients. The potential use of ranolazine in diabetics is of interest because approximately one in four angina patients has diabetes.

[3] = tested on: angina patients with diabetes; test: CARISA study: hemoglobin A1c in angina patients with diabetes; format: in vivo, human; conditions: 12 weeks; for Average absolute reduction in HbA1c compared to placebo: all diabetic patients (N=131); for Absolute reduction in HbA1c compared to placebo: diabetic patients on insulin (N=31)
Method: HbA1c levels were assayed following a modification of the method of Phillipov (Components of total measurement error for hemoglobin A1c determination. Phillipov, G., et al. Clin. Chem. (2001), 47(10):1851). (see FIG. 1) The […] (Combination Assessment of Ranolazine in Stable Angina) study randomized 823 symptomatic chronic angina patients on diltiazem, atenolol or amlodipine to ranolazine 750 mg bid, 1000 mg bid or placebo in a parallel, double-blind, 12 week study. Modified Bruce treadmill tests were performed at baseline, and after 2, 6, and 12 weeks of treatment at trough and peak plasma levels. The ranolazine formulation used in this study was that shown in Example 10.

[4] = tested on: diabetic patients; test: CARISA study: glucose, triglyceride and cholesterol values of diabetic patients; format: in vivo, human; conditions: for Glucose, change from baseline / Triglycerides, change from baseline: all diabetic patients, mean ± SEM; for Glucose, change from baseline: placebo change 1.2 ± 7.1; for Triglycerides, change from baseline: placebo change 26.3 ± 21.2
Method: as §1, with “CARISA” left out

[5] = tested on: chronic angina patients; test: Adverse events in CARISA and MARISA; format: in vivo, human; conditions: for Patients with at least one adverse event: CARISA
Method: as §1, §2

[6] = tested on: diabetic patients; test: Open-label long-term ranolazine treatment of MARISA/CARISA diabetic patients; format: in vivo, human
Method: Efficacy and tolerability of ranolazine were similar in both diabetic and non-diabetic patients in both MARISA and CARISA. In diabetic patients in CARISA (N=131), ranolazine 750 and 1000 mg bid were associated with a mean absolute reduction in HbA1c of 0.48 percentage points and 0.70 percentage points, respectively, compared to placebo at 12 weeks (each p<0.01). The reductions versus placebo were greater in those patients on insulin (N=31; 0.84 and 1.05 percentage points), on 750 and 1000 mg bid (p<0.02 and p<0.01), respectively. Fasting glucose was not affected by ranolazine in diabetic patients in CARISA, regardless of insulin treatment; one hypoglycemic episode was reported on placebo and one on ranolazine.

[7] = tested on: patients with chronic angina; test: MARISA study: treadmill exercise capacity, ranolazine alone; format: in vivo, human; conditions: N=191
From the text: as §2

[8] = tested on: angina patients; test: Angina clinical trials using ranolazine: blood parameters (summary in background); format: in vivo, human
From the text: One compound disclosed therein, (±)-N-(2,6-dimethylphenyl)-4-[2-hydroxy-3-(2-methoxyphenoxy)-propyl]-1-piperazineacetamide (known as ranolazine) is undergoing clinical trials for the treatment of angina. […] Ranolazine was also found to reduce triglyceride levels in non-diabetic patients. Ranolazine was also found to lower glucose plasma levels and, over the long term, total cholesterol levels, while increasing HDL cholesterol levels. Thus, ranolazine provides a method of treating diabetes pre-diabetes, or the non-diabetes condition by reducing the levels of potentially toxic metabolites in blood and/or complications associated with diabetes. Ranolazine also can reduce the number of medications necessary for a patient with both cardiovascular problems and diabetes or pre-diabetes.

[9] = CARISA, diabetic and non-diabetic patients
[10] = first 12 weeks of treatment, diabetic patients in CARISA
[11] = over 3 years of open-label treatment, combined MARISA/CARISA diabetic population

Solubility in aqueous solutions (in words) ([1]; aqueous solutions having a pH above about 6.5): relatively insoluble
USP Solubility Class ([1]; solution pH 4.81): Freely Soluble
USP Solubility Class ([1]; solution pH 4.89): Soluble
USP Solubility Class ([1]; solution pH 4.90): Soluble
USP Solubility Class ([1]; solution pH 5.04): Soluble
USP Solubility Class ([1]; solution pH 5.35): Sparingly Soluble
USP Solubility Class ([1]; solution pH 5.82): Slightly soluble
USP Solubility Class ([1]; solution pH 6.46): Slightly soluble
USP Solubility Class ([1]; solution pH 6.73): Very slightly soluble
USP Solubility Class ([1]; solution pH 7.08): Very slightly soluble
USP Solubility Class ([1]; solution pH 7.59 (unbuffered water)): Very slightly soluble
USP Solubility Class ([1]; solution pH 7.79): Very slightly soluble
USP Solubility Class ([1]; solution pH 12.66): Very slightly soluble
Mean increase in LDL cholesterol [4, 10]: ≤ 11 mg/dL
Mean increase in total cholesterol [4, 10]: up to 16 mg/dL
SMILES: COc1ccccc1OCC(O)CN1CCN(CC(=O)Nc2c(C)cccc2C)CC1 (racemic) [ranolazine, N-(2,6-dimethylphenyl)-4-[2-hydroxy-3-(2-methoxyphenoxy)propyl]-1-piperazineacetamide]
Prolongation of exercise duration at trough drug concentrations ([2]; 750 mg bid, angina patients with diabetes): 29 s
Prolongation of exercise duration at trough drug concentrations ([2]; 750 mg bid, non-diabetic angina patients): 22 s
Prolongation of exercise duration at trough drug concentrations ([2]; 1000 mg bid, angina patients with diabetes): 34 s
Prolongation of exercise duration at trough drug concentrations ([2]; 1000 mg bid, non-diabetic angina patients): 21 s
Angina frequency [2, 9]: decreased
Time to angina [2, 9]: increased
Angina frequency ([2]; MARISA and CARISA): reduced
Nitroglycerin consumption ([2]; MARISA and CARISA): reduced
Treadmill exercise capacity ([2]; added to atenolol, diltiazem, or amlodipine, CARISA, N=823): increased
Exercise duration (ED) at trough and peak (in words) ([2]; similarly in diabetic and non-diabetic patients): prolonged
Average absolute reduction in HbA1c compared to placebo ([3]; 750 mg bid, p<0.01): 0.48 percentage points
Absolute reduction in HbA1c compared to placebo ([3]; 750 mg bid, p<0.02): 0.84 percentage points
Absolute reduction in HbA1c compared to placebo ([3]; 750 mg bid, p<0.02, listed as Ranolazine): 0.8 percentage points
Average absolute reduction in HbA1c compared to placebo ([3]; 1000 mg bid, p<0.01): 0.70 percentage points
Absolute reduction in HbA1c compared to placebo ([3]; 1000 mg bid, p<0.01): 1.05 percentage points
Absolute reduction in HbA1c compared to placebo ([3]; 1000 mg bid, p<0.01, listed as Ranolazine): 1.1 percentage points
Glucose, change from baseline ([4]; 750 mg bid, baseline 168 ± 8.0): 8.0 ± 8.8 mg/dL
Triglycerides, change from baseline ([4]; 750 mg bid, baseline 192.0 ± 14.5): 21.2 ± 13.5 mg/dL
Glucose, change from baseline ([4]; 1000 mg bid, baseline 165.2 ± 7.8): 1.7 ± 7.2 mg/dL
Triglycerides, change from baseline ([4]; 1000 mg bid, baseline 196 ± 17.5): -7.3 ± 9.3 mg/dL
Fasting glucose ([4]; diabetic patients in CARISA, regardless of insulin treatment): not affected
HDL/LDL ratio [4, 10]: changed little
Mean increase in HDL cholesterol [4, 10]: up to 5 mg/dL
Patients with the most frequently reported adverse events (dizziness constipation and nausea) ([5]; CARISA and MARISA, generally mild): < 10%
Patients with at least one adverse event ([5]; diabetic patients, 750 mg bid (placebo 25%)): 25%
Patients with at least one adverse event ([5]; diabetic patients, 1000 mg bid (placebo 25%)): 34%
Patients with at least one adverse event ([5]; non-diabetic patients, 750 mg bid (placebo 27%)): 33%
Patients with at least one adverse event ([5]; non-diabetic patients, 1000 mg bid (placebo 27%)): 32%
Hypoglycemic episodes reported ([5]; diabetic patients in CARISA (one on placebo)): one
Decrease of HbA1c from baseline ([6]; after 12-24 months of open-label treatment, diabetic patients): 1.1 percentage points
HDL cholesterol [6, 11]: continued to increase
LDL cholesterol [6, 11]: decreased from baseline
Total cholesterol [6, 11]: decreased from baseline
Treadmill exercise capacity [7]: increased
Glucose plasma levels ([8]; angina clinical trials): lower
HDL cholesterol levels ([8]; angina clinical trials): increasing
Hemoglobulin A1 (HbA1c) levels ([8]; diabetic angina patients): reduced
Triglyceride levels ([8]; diabetic angina patients, over the long term): reduced
Triglyceride levels ([8]; non-diabetic patients): reduce
Total cholesterol levels ([8]; over the long term): lower
